Consider 39 compounds from US20090163586A1, “Bis-(Sulfonylamino) Derivatives in Therapy 205” (AstraZeneca AB, priority 2007, published 2009).

For this assay, the target named is T1, human mPGES-1 (Homo sapiens, UniProt O14684).
T1 sequence (O14684 1-152): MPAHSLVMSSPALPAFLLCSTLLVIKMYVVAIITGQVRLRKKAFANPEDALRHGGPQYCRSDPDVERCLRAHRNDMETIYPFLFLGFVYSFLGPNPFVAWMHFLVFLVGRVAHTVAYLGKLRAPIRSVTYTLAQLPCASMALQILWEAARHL
As to the kind of experiment: Microsomal prostaglandin E synthase biochemical assay. The note with it: microsome preparation containing human mPGES-1; PGH2 10.8 μM, GSH 2.5 mM, pH 6.8; PGE2 by HTRF; average of at least n=2. The gist of the method:
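Human mPGES-1 microsomes at 2 μg/mL were pre-incubated 15 min with compound (60 μM to 0.002 μM) in 50 mM potassium phosphate pH 6.8 with 2.5 mM GSH. The reaction was started with 10.8 μM PGH2 and stopped after 1 minute with acidic ferric chloride/citrate. PGE2 was quantified by HTRF; IC50 is the mean of at least 2 runs.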
A general note: TR-FRET usually uses a lanthanide donor and a delayed reading to cut background.

In general, IC50 refers to the midpoint of a concentration-inhibition curve. A high value points to weaker potency in that assay.

The structures appear in SMILES notation.

In turn, `NS(=O)(=O)c1ccccc1NS(=O)(=O)c1cccc(-c2ccc(F)cc2F)c1` [Example 143, 2-[[3-(2,4-Difluorophenyl)phenyl]sulfonylamino]benzenesulfonamide] came in with a concentration for half-maximal inhibition (IC50) of 1.1 µM.
As to `NS(=O)(=O)c1cc(Br)ccc1NS(=O)(=O)c1cccc(-c2ccc(Cl)c(Cl)c2)c1` [Example 144, 5-Bromo-2-[[3-(3,4-dichlorophenyl)phenyl]sulfonylamino]benzenesulfonamide], the IC50 worked out at 1.1 µM.
The figure for `NS(=O)(=O)c1cc(-c2ccccc2)ccc1NS(=O)(=O)c1cccc(-c2ccc(Cl)c(Cl)c2)c1` [Example 145, 2-[[3-(3,4-Dichlorophenyl)phenyl]sulfonylamino]-5-phenyl-benzenesulfonamide] is 4.1 µM.
The result for `NS(=O)(=O)c1ccccc1NS(=O)(=O)c1cccc(F)c1F` [Example 146, 2,3-Difluoro-N-(2-sulfamoylphenyl)benzenesulfonamide] reads 4.7 µM; that for `NS(=O)(=O)c1cc(F)ccc1NS(=O)(=O)c1cccc(F)c1F` [Example 147, 2,3-Difluoro-N-(4-fluoro-2-sulfamoyl-phenyl)benzenesulfonamide], 3.9 µM; that for `NS(=O)(=O)c1ccccc1NS(=O)(=O)c1cccc(Cl)c1F` [Example 148, 3-Chloro-2-fluoro-N-(2-sulfamoylphenyl)benzenesulfonamide], 0.38 µM.
The figure for `NS(=O)(=O)c1ccccc1NS(=O)(=O)c1cccc(Cl)c1Cl` [Example 149, 2,3-Dichloro-N-(2-sulfamoylphenyl)benzenesulfonamide] is 0.65 µM.
`Cc1ccc(NS(=O)(=O)c2cccc(-c3ccc(Cl)c(Cl)c3)c2)c(S(N)(=O)=O)c1` [Example 150, 2-[[3-(3,4-Dichlorophenyl)phenyl]sulfonylamino]-5-methyl-benzenesulfonamide] yielded an IC50 of 4.2 µM.
The result for `NC(=O)c1ccc(NS(=O)(=O)c2cccc(-c3ccc(Cl)c(Cl)c3)c2)c(S(N)(=O)=O)c1` [Example 151, 4-[[3-(3,4-Dichlorophenyl)phenyl]sulfonylamino]-3-sulfamoyl-benzamide] reads 3.7 µM; that for `Cc1ccc(NS(=O)(=O)c2cccc(-c3cccc(OC(F)(F)F)c3)c2)c(S(N)(=O)=O)c1` [Example 152, 5-Methyl-2-[[3-[3-(trifluoromethoxy)phenyl]phenyl]sulfonylamino]-benzenesulfonamide], 3.9 µM.
For the compound `NS(=O)(=O)c1cc(CO)ccc1NS(=O)(=O)c1cccc(Cl)c1Cl` [Example 153, 2-(2,3-Dichloro-benzenesulfonylamino)-5-hydroxymethyl-benzenesulfonamide], it took 3.2 µM to reach half-maximal inhibition (IC50).
The figure for `Cc1ccc(NS(=O)(=O)c2cccc(Cl)c2Cl)c(S(N)(=O)=O)c1` [Example 154, 2-(2,3-Dichloro-benzenesulfonylamino)-5-methyl-benzenesulfonamide] is 9.3 µM.
The compound `NS(=O)(=O)c1cc(Oc2ccccc2)ccc1NS(=O)(=O)c1cccc(-c2ccc(Cl)c(Cl)c2)c1` [Example 155, 2-[[3-(3,4-Dichlorophenyl)phenyl]sulfonylamino]-5-phenoxy-benzenesulfonamide] came in with an IC50 of 9.8 µM.
The figure for `NS(=O)(=O)c1cc(Oc2ccccc2)ccc1NS(=O)(=O)c1cccc(-c2cccc(OC(F)(F)F)c2)c1` [Example 156, 5-Phenoxy-2-[[3-[3-(trifluoromethoxy)phenyl]phenyl]sulfonylamino]-benzenesulfonamide] is 5.4 µM; for `NS(=O)(=O)c1cc(O)ccc1NS(=O)(=O)c1cccc(Cl)c1Cl` [Example 157, 2-(2,3-Dichloro-benzenesulfonylamino)-5-hydroxy-benzenesulfonamide] it is 1.1 µM; for `C[C@@](O)(C(=O)Nc1ccc(S(=O)(=O)Nc2ccccc2S(N)(=O)=O)cc1Cl)C(F)(F)F` [Example 158, (2R)—N-[2-Chloro-4-[(2-sulfamoylphenyl)sulfamoyl]phenyl]-3,3,3-trifluoro-2-hydroxy-2-methyl-propanamide] it is 8.7 µM.
The result for `NS(=O)(=O)c1ccccc1NS(=O)(=O)c1ccc(Cl)s1` [Example 159, 5-Chloro-N-(2-sulfamoylphenyl)thiophene-2-sulfonamide] reads 3.5 µM; that for `NS(=O)(=O)c1ccccc1NS(=O)(=O)c1cc(Cl)c(Cl)s1` [Example 160, 4,5-Dichloro-N-(2-sulfamoylphenyl)thiophene-2-sulfonamide], 1.2 µM; that for `NS(=O)(=O)c1ccccc1NS(=O)(=O)c1ccc(Cl)c(Cl)c1` [Example 161, 3,4-Dichloro-N-(2-sulfamoylphenyl)benzenesulfonamide], 1.3 µM.
The figure for `COc1cccc(-c2cccc(S(=O)(=O)Nc3ccccc3S(N)(=O)=O)c2)n1` [Example 162, 3-(6-Methoxypyridin-2-yl)-N-(2-sulfamoylphenyl)benzenesulfonamide] is 5.7 µM.
`NS(=O)(=O)c1ccccc1NS(=O)(=O)c1ccc(OCc2cnc(Cl)s2)cc1` [Example 163, 2-[[4-[(2-Chlorol,3-thiazol-5-yl)methoxy]phenyl]sulfonylamino]benzenesulfonamide]: half-maximal inhibition (IC50) required 0.46 µM.
The figure for `COc1ncc(-c2cccc(S(=O)(=O)Nc3ccccc3S(N)(=O)=O)c2)cc1F` [Example 164, 3-(5-Fluoro-6-methoxy-pyridin-3-yl)-N-(2-sulfamoylphenyl)benzenesulfonamide] is 0.19 µM; for `COc1ncc(-c2cccc(S(=O)(=O)Nc3ccccc3S(N)(=O)=O)c2)cn1` [Example 165, 3-(2-Methoxypyrimidin-5-yl)-N-(2-sulfamoylphenyl)benzenesulfonamide] it is 2.3 µM; for `Cc1ccncc1-c1cccc(S(=O)(=O)Nc2ccccc2S(N)(=O)=O)c1` [Example 166, 3-(4-Methylpyridin-3-yl)-N-(2-sulfamoylphenyl)benzenesulfonamide] it is 4.8 µM.
The result for `COc1ncccc1-c1cccc(S(=O)(=O)Nc2ccccc2S(N)(=O)=O)c1` [Example 167, 3-(2-Methoxypyridin-3-yl)-N-(2-sulfamoylphenyl)benzenesulfonamide] reads 3.8 µM; that for `NS(=O)(=O)c1ccccc1NS(=O)(=O)c1cccc(-c2cncc(Cl)c2)c1` [Example 168, 2-[[3-(5-Chloropyridin-3-yl)phenyl]sulfonylamino]benzenesulfonamide], 0.63 µM.
As for `COc1ncc(-c2cccc(S(=O)(=O)Nc3ccccc3S(N)(=O)=O)c2)cc1Cl` [Example 169, 3-(5-Chloro-6-methoxy-pyridin-3-yl)-N-(2-sulfamoylphenyl)benzenesulfonamide], the IC50 was found to be 0.022 µM.
In turn, `CN(C)c1ccc(-c2cccc(S(=O)(=O)Nc3ccccc3S(N)(=O)=O)c2)cn1` [Example 170, 3-(6-Dimethylaminopyridin-3-yl)-N-(2-sulfamoylphenyl)benzenesulfonamide] had an IC50 of 0.29 µM.
As for `NS(=O)(=O)c1ccccc1NS(=O)(=O)c1cccc(-c2cccc(CO)c2)c1` [Example 171, 2-[[3-[3-(Hydroxymethyl)phenyl]phenyl]sulfonylamino]benzenesulfonamide], the half-maximal inhibitory concentration (IC50) stood at 1.7 µM.
In turn, `NS(=O)(=O)c1ccccc1NS(=O)(=O)c1cccc(-c2ccc(CO)cc2)c1` [Example 172, 2-[[3-[4-(Hydroxymethyl)phenyl]phenyl]sulfonylamino]benzenesulfonamide] had a half-maximal inhibitory concentration (IC50) of 7.3 µM.
The figure for `NS(=O)(=O)c1ccccc1NS(=O)(=O)c1ccc(-c2ccc(Cl)c(Cl)c2)cc1` [Example 173, 2-[[4-(3,4-Dichlorophenyl)phenyl]sulfonylamino]benzenesulfonamide] is 1.5 µM; for `NS(=O)(=O)c1ccccc1NS(=O)(=O)c1cccc(-c2ccc(Cl)c(Cl)c2)c1` [Example 174, 2-[[3-(3,4-Dichlorophenyl)phenyl]sulfonylamino]benzenesulfonamide] it is 0.22 µM.
The figure for `NS(=O)(=O)c1ccccc1NS(=O)(=O)c1ccc(Oc2ccc(Cl)cc2)cc1` [Example 175, 2-[[4-(4-Chlorophenoxy)phenyl]sulfonylamino]benzenesulfonamide] is 3.7 µM; for `Cc1cc(NC(=O)Nc2ccc(Cl)cc2)ccc1S(=O)(=O)Nc1ccccc1S(N)(=O)=O` [Example 176, 3-(4-Chlorophenyl)-1-[3-methyl-4-[(2-sulfamoylphenyl)sulfamoyl]phenyl]urea] it is 0.9 µM; for `CNS(=O)(=O)c1ccc2c(c1)-c1cc(S(=O)(=O)Nc3ccccc3S(N)(=O)=O)ccc1S2(=O)=O` [Example 177, N-Methyl-N′-(2-sulfamoylphenyl)dibenzo[b,d]thiophene-2,8-disulfonamide 5,5-dioxide] it is 2.2 µM.
The result for `NS(=O)(=O)c1cc(F)c(F)cc1NS(=O)(=O)c1cccc(Cl)c1Cl` [Example 178, 2,3-Dichloro-N-(4,5-difluoro-2-sulfamoylphenyl)benzenesulfonamide] reads 2.7 µM.
The compound `N#Cc1ccc(S(N)(=O)=O)c(NS(=O)(=O)CCc2ccc(Cl)c(Cl)c2)c1` [Example 180, 4-Cyano-2-(2-(3,4-dichlorophenyl)ethylsulfonamido)benzenesulfonamide] gave an IC50 of 1.4 µM.
Take `COc1cc(Cl)ccc1CCS(=O)(=O)Nc1cc(C#N)ccc1S(N)(=O)=O` [Example 181, 2-(2-(4-Chloro-2-methoxyphenyl)ethylsulfonamido)-4-cyanobenzenesulfonamide]: the IC50 was 0.37 µM.
The figure for `COc1cc(Cl)ccc1CCS(=O)(=O)Nc1ccc(C#N)cc1S(N)(=O)=O` [Example 182, 2-(2-(4-Chloro-2-methoxyphenyl)ethylsulfonamido)-5-cyanobenzenesulfonamide] is 0.52 µM.
